Converted amounts (≈) assume the structure as drawn. The source made the active and inactive calls. No cut-off for these calls is given here.
How the values were obtained:
Escherichia coli [1] = assay: Antimicrobial activity against Escherichia coli MC4100 assessed as inhibition zone at >2 mg/mL; assay type: functional, organism-based
Bacillus subtilis = assay: Antimicrobial activity against Bacillus subtilis; assay type: functional
Escherichia coli [2] = assay: Antimicrobial activity against Escherichia coli MC4100; assay type: functional

Structure (SMILES)	Activity (Escherichia coli [1])	MIC (Bacillus subtilis)	MIC (Escherichia coli [2])
O=C(CCCCCN1c2ccccc2Sc2ccccc21)OCc1ccc(-c2cc(-c3ccccn3)nc(-c3ccccn3)c2)cc1	inactive	500 mg/L (≈ 788 µM)	
O=C(CCN1c2ccccc2Sc2ccccc21)NCc1ccc(CN(Cc2ccccn2)Cc2ccccn2)cc1	inactive	30 mg/L (≈ 52.5 µM)	
O=C(CCN1c2ccccc2Sc2ccc(C(F)(F)F)cc21)NCc1ccc(CN2CCOCCOCCOCCOCC2)cc1	inactive	500 mg/L (≈ 758 µM)	
O=C(CN1c2ccccc2Sc2ccccc21)NCc1ccc(CN2CCCNCCNCCCNCC2)cc1		7.8 mg/L (≈ 14 µM)	2000 mg/L (≈ 3580 µM)
O=C(CCCCCN1c2ccccc2Sc2ccccc21)NCc1ccc(CN2CCOCCOCCOCCOCC2)cc1	inactive	60 mg/L (≈ 94.7 µM)	
NC[C@H]1O[C@H](O[C@H]2[C@H](O)[C@@H](O[C@H]3O[C@H](CO)[C@@H](O)[C@H](N)[C@H]3O)[C@H](N)C[C@@H]2N)[C@H](O)[C@@H](O)[C@@H]1O [KANAMYCIN]		< 3 mg/L	
O=C(CCCCCN1c2ccccc2Sc2ccccc21)NCc1ccc(CN(Cc2ccccn2)Cc2ccccn2)cc1	inactive	7.8 mg/L (≈ 12.7 µM)	
O=C(CCN1c2ccccc2Sc2ccccc21)OCc1ccc(-c2cc(-c3ccccn3)nc(-c3ccccn3)c2)cc1	inactive		
CC1(C)S[C@@H]2[C@H](NC(=O)[C@H](N)c3ccccc3)C(=O)N2[C@H]1C(=O)O [AMPICILLIN]		25 mg/L (≈ 71.5 µM)	
O=C(CCN1c2ccccc2Sc2ccc(C(F)(F)F)cc21)NCc1ccc(CN(Cc2ccccn2)Cc2ccccn2)cc1	inactive	16 mg/L (≈ 25 µM)	
c1ccc2c(c1)Nc1ccccc1S2 [PHENOTHIAZINE]		500 mg/L (≈ 2510 µM)	
O=C(CCN1c2ccccc2Sc2ccccc21)NCc1ccc(CN2CCOCCOCCOCCOCC2)cc1	inactive	2000 mg/L (≈ 3380 µM)	
